Measured values reported in patent publication US20230136297A1, “Methods Of Treating Fabry Disease In Patients Having A Mutation In The GLA Gene” (Amicus Therapeutics, Inc., priority 2020, published 2023).
Residue numbers refer to the chain shown, from its start.

Columns and labels:
Test in all cases: α-Gal A activity in lysates of transfected HEK-293 cells ± migalastat (HEK assay)
Type in all cases: cell-based
[1] = biological target: T1, α-Gal A mutant form A257T (Homo sapiens, UniProt P06280, A257T)
T1 construct: expressed in transfected cells; host or cells: HEK-293
T1 sequence (P06280 32-429 A257T): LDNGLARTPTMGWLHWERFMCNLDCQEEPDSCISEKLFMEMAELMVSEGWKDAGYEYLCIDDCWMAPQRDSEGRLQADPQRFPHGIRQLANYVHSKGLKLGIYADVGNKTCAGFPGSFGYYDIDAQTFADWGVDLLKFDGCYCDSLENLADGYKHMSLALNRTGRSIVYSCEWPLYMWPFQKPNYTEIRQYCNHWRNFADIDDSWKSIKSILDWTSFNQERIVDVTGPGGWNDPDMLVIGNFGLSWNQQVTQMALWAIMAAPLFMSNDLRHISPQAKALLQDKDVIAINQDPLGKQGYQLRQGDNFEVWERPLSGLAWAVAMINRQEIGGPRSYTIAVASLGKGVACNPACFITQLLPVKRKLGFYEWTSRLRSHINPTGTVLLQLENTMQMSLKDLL
Method in brief: (§1)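 Activity is reported as nmol of free 4-MU released per mg protein per hour (nmol/mg/hr).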

[2] = biological target: T2, α-Gal A mutant form L180V (Homo sapiens, UniProt P06280, L180V)
T2 construct: expressed in transfected cells; host or cells: HEK-293
T2 sequence (P06280 32-429 L180V): T1 sequence (P06280 32-429 A257T) with L149V, T226A
Method in brief: as §1

[3] = biological target: T3, α-Gal A mutant form G271A (Homo sapiens, UniProt P06280, G271A)
T3 construct: expressed in transfected cells; host or cells: HEK-293
T3 sequence (P06280 32-429 G271A): T1 sequence (P06280 32-429 A257T) with T226A, G240A
Method in brief: as §1

[4] = biological target: T4, α-Gal A mutant form R196T (Homo sapiens, UniProt P06280, R196T)
T4 construct: expressed in transfected cells; host or cells: HEK-293
T4 sequence (P06280 32-429 R196T): T1 sequence (P06280 32-429 A257T) with R165T, T226A
Method in brief: as §1

[5] = biological target: T5, α-Gal A mutant form G360R (Homo sapiens, UniProt P06280, G360R)
T5 construct: expressed in transfected cells; host or cells: HEK-293
T5 sequence (P06280 32-429 G360R): T1 sequence (P06280 32-429 A257T) with T226A, G329R
Method in brief: as §1

[6] = 10 μM migalastat minus baseline
[7] = HEK-293 lysates, 10 μM migalastat 5 days, mean ± SEM

`OC[C@H]1NC[C@H](O)[C@@H](O)[C@H]1O` [migalastat, (2R,3S,4R,5S)-2-(hydroxymethyl) piperdine-3,4,5-triol] was tested, and the “Absolute increase (% WT)” value [1, 6] was 40.6 % WT, the Relative increase ([1]; 10 μM migalastat ÷ baseline) was 2.56 and the “10 μM migalastat α-Gal A activity” value [1, 7] was 18990 ± 1196 nmol/mg/h. The “10 μM migalastat α-Gal A activity (% WT)” value [1, 7] was 66.2 ± 4.1 % WT, the “Absolute increase (% WT)” value [2, 6] was 36.2 % WT and the Relative increase ([2]; 10 μM migalastat ÷ baseline) was 1.97. For the same compound, the “10 μM migalastat α-Gal A activity” value [2, 7] was 25437 ± 1279 nmol/mg/h, the “10 μM migalastat α-Gal A activity (% WT)” value [2, 7] was 73.4 ± 2.9 % WT and the “Absolute increase (% WT)” value [3, 6] was 34.4 % WT. For the same compound, the Relative increase ([3]; 10 μM migalastat ÷ baseline) was 3.87, the “10 μM migalastat α-Gal A activity” value [3, 7] was 18928 ± 1069 nmol/mg/h and the “10 μM migalastat α-Gal A activity (% WT)” value [3, 7] was 46.4 ± 1.8 % WT. The “Absolute increase (% WT)” value [4, 6] was 22.4 % WT, the Relative increase ([4]; 10 μM migalastat ÷ baseline) was 1.48 and the “10 μM migalastat α-Gal A activity” value [4, 7] was 26217 ± 1611 nmol/mg/h. For the same compound, the “10 μM migalastat α-Gal A activity (% WT)” value [4, 7] was 69.5 ± 2.6 % WT, the “Absolute increase (% WT)” value [5, 6] was 3 % WT and the Relative increase ([5]; 10 μM migalastat ÷ baseline) was 3.65. For the same compound, the “10 μM migalastat α-Gal A activity” value [5, 7] was 1418 ± 93 nmol/mg/h and the “10 μM migalastat α-Gal A activity (% WT)” value [5, 7] was 4.0 ± 0.3 % WT.
